Data: patent publication US9540348B2, “Imidazole-1-yl pyrimidine derivatives, or pharmacutically acceptable salt thereof, and pharmaceutic composition comprising the same as an active ingredient” (Industry-University Cooperation Foundation Hanyang …, priority 2015, dated 2017)
“Also recorded” adds a separate entry of the source.

How the values were obtained:
[1] = system: A375P human melanoma cell line; test: Antiproliferative activity to A375P human melanoma cell line; format: cell-based
Protocol: The antiproliferative activity of the compounds of Examples to A375P human melanoma cell line and U937 human leukemic monocyte lymphoma cell line are evaluated and listed in the following Table 1.

ABL1 = ABL1 (Homo sapiens, UniProt P00519); test: Kinase panel screening; format: biochemical; conditions: 10 μM concentration; read-out: Inhibition Rate (Unit: %) ABL1
Protocol: (§1) To Compound 10c of Example 23, kinase panel screening was carried out to 32 kinds of kinases in 10 μM concentration and the results are listed in the following Table 2.

AKT1 = AKT1 (Homo sapiens, UniProt P31749); test: Kinase panel screening; format: biochemical; conditions: 10 μM concentration; read-out: Inhibition Rate (Unit: %) AKT1
AKT1, sequence (P31749 whole entry, species assumed): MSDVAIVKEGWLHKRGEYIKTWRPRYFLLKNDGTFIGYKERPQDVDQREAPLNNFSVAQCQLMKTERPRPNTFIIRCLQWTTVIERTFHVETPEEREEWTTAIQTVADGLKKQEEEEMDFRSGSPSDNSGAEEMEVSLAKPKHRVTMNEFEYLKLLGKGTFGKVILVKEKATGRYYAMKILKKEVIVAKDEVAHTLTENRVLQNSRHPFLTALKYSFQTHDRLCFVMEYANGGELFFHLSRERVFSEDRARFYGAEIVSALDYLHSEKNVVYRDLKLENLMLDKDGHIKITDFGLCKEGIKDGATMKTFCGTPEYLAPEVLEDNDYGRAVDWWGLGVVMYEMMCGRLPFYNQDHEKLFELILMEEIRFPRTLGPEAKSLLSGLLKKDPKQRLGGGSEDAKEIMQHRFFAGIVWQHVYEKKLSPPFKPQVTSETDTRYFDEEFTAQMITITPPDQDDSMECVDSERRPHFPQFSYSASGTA
Protocol: as §1

ALK = ALK (Homo sapiens, UniProt Q9UM73); test: Kinase panel screening; format: biochemical; conditions: 10 μM concentration; read-out: Inhibition Rate (Unit: %) ALK
Protocol: as §1

Aurora A = Aurora A (Homo sapiens, UniProt O14965); test: Kinase panel screening; format: biochemical; conditions: 10 μM concentration; read-out: Inhibition Rate (Unit: %) Aurora A
Protocol: as §1

BRAF = BRAF (Homo sapiens, UniProt P15056); test: Kinase panel screening; format: biochemical; conditions: 10 μM concentration
BRAF, sequence (P15056 whole entry): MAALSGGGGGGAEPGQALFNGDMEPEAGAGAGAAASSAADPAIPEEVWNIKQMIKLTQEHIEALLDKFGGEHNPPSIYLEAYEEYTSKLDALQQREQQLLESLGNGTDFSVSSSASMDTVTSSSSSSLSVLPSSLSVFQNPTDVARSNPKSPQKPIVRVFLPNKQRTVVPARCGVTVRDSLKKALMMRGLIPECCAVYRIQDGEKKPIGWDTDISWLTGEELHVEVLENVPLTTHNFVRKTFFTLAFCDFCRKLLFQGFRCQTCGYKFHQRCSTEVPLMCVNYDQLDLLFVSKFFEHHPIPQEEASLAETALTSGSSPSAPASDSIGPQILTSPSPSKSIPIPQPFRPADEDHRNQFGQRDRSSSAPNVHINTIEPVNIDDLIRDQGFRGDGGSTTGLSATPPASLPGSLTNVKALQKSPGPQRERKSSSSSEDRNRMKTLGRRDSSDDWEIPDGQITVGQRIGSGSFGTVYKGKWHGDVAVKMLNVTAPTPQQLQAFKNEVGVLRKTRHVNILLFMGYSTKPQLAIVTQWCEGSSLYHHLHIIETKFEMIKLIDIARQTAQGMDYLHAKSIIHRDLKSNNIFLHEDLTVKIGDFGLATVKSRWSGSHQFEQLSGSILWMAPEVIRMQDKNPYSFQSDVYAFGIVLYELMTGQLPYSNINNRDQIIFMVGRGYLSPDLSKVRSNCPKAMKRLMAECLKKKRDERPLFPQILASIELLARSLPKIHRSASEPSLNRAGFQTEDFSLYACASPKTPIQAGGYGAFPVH
Protocol: as §1

BRAF (V600E) [2] = molecular target: T1, BRAF (V600E) (Homo sapiens, UniProt P15056, V600E); test: Kinase panel screening; format: biochemical; conditions: 10 μM concentration
T1 sequence (P15056 whole entry V600E): as the sequence (P15056 whole entry) above, with V600E counted along it
Protocol: as §1

BTK = BTK (Homo sapiens, UniProt Q06187); test: Kinase panel screening; format: biochemical; conditions: 10 μM concentration; read-out: Inhibition Rate (Unit: %) BTK
Protocol: as §1

EGFR = EGFR (Homo sapiens, UniProt P00533); test: Kinase panel screening; format: biochemical; conditions: 10 μM concentration; read-out: Inhibition Rate (Unit: %) EGFR
EGFR, sequence (P00533 25-1210, species assumed): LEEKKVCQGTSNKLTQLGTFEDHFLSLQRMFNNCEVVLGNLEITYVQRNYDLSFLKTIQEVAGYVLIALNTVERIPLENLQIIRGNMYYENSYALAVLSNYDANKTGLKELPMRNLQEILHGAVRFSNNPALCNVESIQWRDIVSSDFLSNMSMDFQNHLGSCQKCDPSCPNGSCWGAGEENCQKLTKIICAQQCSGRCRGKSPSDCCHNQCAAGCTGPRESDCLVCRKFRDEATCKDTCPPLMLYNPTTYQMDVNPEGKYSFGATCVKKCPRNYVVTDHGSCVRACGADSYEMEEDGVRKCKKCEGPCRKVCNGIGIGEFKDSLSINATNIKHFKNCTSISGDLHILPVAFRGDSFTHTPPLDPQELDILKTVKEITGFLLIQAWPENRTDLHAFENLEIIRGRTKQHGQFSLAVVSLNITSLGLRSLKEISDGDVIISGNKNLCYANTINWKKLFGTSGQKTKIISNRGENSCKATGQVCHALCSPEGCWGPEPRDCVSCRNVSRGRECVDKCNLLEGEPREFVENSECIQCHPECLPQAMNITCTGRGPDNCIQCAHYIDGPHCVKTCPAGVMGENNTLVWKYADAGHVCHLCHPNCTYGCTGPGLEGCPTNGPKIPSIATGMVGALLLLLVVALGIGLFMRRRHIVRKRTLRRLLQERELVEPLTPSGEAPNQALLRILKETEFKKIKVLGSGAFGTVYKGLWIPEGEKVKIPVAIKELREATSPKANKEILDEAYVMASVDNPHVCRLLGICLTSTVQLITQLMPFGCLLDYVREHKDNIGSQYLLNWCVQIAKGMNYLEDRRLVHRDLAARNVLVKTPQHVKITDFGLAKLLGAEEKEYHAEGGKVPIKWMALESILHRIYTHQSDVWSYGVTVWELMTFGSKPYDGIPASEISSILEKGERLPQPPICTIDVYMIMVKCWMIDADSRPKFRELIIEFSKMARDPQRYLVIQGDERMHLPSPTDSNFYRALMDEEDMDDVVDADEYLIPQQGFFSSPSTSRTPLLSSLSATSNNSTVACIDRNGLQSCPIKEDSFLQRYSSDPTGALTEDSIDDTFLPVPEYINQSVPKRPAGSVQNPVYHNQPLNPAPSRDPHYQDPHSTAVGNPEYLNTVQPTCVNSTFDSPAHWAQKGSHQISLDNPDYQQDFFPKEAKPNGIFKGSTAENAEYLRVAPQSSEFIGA
Protocol: as §1

FAK/PTK2 = FAK/PTK2 (Homo sapiens, UniProt Q05397); test: Kinase panel screening; format: biochemical; conditions: 10 μM concentration; read-out: Inhibition Rate (Unit: %) FAK/PTK2
Protocol: as §1

FGFR3 = FGFR3 (Homo sapiens, UniProt P22607); test: Kinase panel screening; format: biochemical; conditions: 10 μM concentration; read-out: Inhibition Rate (Unit: %) FGFR3
FGFR3, sequence (P22607 23-806, species assumed): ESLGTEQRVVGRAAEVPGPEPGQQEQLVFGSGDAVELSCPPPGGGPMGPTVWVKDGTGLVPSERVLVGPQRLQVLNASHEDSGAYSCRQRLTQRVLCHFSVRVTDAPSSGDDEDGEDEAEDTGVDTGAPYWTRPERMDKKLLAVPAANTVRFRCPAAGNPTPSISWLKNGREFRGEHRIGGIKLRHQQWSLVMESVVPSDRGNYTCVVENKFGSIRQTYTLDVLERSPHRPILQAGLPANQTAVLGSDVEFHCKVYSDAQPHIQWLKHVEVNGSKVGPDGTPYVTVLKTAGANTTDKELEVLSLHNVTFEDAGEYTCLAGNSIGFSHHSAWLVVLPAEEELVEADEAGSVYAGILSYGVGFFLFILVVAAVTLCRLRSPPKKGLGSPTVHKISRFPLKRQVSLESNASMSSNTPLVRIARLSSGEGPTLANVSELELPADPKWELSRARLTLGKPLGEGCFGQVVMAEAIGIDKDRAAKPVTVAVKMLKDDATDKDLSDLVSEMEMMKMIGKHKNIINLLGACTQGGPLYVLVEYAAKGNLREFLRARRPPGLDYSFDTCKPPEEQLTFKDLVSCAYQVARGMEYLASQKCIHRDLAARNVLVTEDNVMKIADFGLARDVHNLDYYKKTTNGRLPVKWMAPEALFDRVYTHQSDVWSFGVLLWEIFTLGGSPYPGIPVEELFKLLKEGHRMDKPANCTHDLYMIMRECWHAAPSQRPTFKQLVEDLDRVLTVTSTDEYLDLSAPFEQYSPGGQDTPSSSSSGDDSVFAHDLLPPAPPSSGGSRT
Protocol: as §1

FLT3 = FLT3 (Homo sapiens, UniProt P36888); test: Kinase panel screening; format: biochemical; conditions: 10 μM concentration; read-out: Inhibition Rate (Unit: %) FLT3
Protocol: as §1

FMS = FMS (Homo sapiens, UniProt P07333); test: Kinase panel screening; format: biochemical; conditions: 10 μM concentration; read-out: Inhibition Rate (Unit: %) FMS
Protocol: as §1

GSK3b = GSK3b (Homo sapiens, UniProt P49841); test: Kinase panel screening; format: biochemical; conditions: 10 μM concentration; read-out: Inhibition Rate (Unit: %) GSK3b
Protocol: as §1

IGF1R = IGF1R (Homo sapiens, UniProt P08069); test: Kinase panel screening; format: biochemical; conditions: 10 μM concentration; read-out: Inhibition Rate (Unit: %) IGF1R
Protocol: as §1

JAK3 = JAK3 (Homo sapiens, UniProt P52333); test: Kinase panel screening; format: biochemical; conditions: 10 μM concentration; read-out: Inhibition Rate (Unit: %) JAK3
Protocol: as §1

JNK3 = JNK3 (Homo sapiens, UniProt P53779); test: Kinase panel screening; format: biochemical; conditions: 10 μM concentration; read-out: Inhibition Rate (Unit: %) JNK3
JNK3, sequence (P53779 whole entry, species assumed): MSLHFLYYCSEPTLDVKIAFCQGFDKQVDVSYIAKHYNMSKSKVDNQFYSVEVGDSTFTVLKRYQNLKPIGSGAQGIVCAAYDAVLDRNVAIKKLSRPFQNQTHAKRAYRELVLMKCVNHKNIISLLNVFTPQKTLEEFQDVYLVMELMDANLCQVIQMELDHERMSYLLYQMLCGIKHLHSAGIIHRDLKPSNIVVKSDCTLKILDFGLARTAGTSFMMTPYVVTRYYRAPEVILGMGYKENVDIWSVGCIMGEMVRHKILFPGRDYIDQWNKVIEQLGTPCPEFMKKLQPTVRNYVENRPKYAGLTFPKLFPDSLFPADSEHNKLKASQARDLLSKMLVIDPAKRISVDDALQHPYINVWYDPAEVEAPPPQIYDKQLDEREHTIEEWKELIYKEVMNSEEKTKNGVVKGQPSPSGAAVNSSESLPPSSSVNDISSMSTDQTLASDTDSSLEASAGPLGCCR
Protocol: as §1

MEK1 = MEK1 (Homo sapiens, UniProt Q02750); test: Kinase panel screening; format: biochemical; conditions: 10 μM concentration; read-out: Inhibition Rate (Unit: %) MEK1
Protocol: as §1

P38a/MAPK14 = P38a/MAPK14 (Homo sapiens, UniProt Q16539); test: Kinase panel screening; format: biochemical; conditions: 10 μM concentration; read-out: Inhibition Rate (Unit: %) P38a/MAPK14
Protocol: as §1

PLK1 = PLK1 (Homo sapiens, UniProt P53350); test: Kinase panel screening; format: biochemical; conditions: 10 μM concentration; read-out: Inhibition Rate (Unit: %) PLK1
PLK1, sequence (P53350 whole entry, species assumed): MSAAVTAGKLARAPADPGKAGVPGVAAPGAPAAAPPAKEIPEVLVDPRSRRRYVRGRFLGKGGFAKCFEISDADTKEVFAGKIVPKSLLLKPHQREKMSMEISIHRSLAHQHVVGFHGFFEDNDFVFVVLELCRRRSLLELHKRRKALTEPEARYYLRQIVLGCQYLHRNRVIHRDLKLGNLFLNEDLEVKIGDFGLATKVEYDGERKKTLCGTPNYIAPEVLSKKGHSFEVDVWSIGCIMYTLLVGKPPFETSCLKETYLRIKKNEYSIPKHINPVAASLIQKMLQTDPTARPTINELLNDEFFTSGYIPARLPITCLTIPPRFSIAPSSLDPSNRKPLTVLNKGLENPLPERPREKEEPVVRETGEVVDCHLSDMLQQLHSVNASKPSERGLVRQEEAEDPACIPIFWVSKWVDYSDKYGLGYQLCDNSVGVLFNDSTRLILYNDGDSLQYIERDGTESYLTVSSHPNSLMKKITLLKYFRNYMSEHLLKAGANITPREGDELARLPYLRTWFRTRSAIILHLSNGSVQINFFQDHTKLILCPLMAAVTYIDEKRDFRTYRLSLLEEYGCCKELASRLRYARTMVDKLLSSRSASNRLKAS
Protocol: as §1

RAF1 = RAF1 (Homo sapiens, UniProt P04049); test: Kinase panel screening; format: biochemical; conditions: 10 μM concentration
RAF1, sequence (P04049 whole entry): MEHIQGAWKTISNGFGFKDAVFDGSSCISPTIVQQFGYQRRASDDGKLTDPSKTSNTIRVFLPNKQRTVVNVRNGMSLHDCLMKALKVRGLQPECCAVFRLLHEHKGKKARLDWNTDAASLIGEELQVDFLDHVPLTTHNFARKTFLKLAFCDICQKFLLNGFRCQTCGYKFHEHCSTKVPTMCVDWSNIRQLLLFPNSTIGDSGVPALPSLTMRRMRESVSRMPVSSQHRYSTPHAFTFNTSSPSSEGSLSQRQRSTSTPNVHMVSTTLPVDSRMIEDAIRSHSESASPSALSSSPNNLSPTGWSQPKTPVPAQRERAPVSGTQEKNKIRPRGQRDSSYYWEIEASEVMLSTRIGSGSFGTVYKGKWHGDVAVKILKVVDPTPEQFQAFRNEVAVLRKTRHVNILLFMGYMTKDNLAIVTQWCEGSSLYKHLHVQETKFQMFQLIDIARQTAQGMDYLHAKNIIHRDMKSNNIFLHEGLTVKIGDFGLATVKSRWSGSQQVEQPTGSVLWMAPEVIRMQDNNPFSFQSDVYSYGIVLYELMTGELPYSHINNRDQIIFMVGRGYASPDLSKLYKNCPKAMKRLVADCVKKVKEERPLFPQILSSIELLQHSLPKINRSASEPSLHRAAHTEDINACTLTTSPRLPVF
Protocol: as §1

RON/MST1R = RON/MST1R (Homo sapiens, UniProt Q04912); test: Kinase panel screening; format: biochemical; conditions: 10 μM concentration; read-out: Inhibition Rate (Unit: %) RON/MST1R
Protocol: as §1

ROS/ROS1 = ROS/ROS1 (Homo sapiens, UniProt P08922); test: Kinase panel screening; format: biochemical; conditions: 10 μM concentration; read-out: Inhibition Rate (Unit: %) ROS/ROS1
Protocol: as §1

SYK = SYK (Homo sapiens, UniProt P43405); test: Kinase panel screening; format: biochemical; conditions: 10 μM concentration; read-out: Inhibition Rate (Unit: %) SYK
Protocol: as §1

c-Kit = c-Kit (Homo sapiens, UniProt P10721); test: Kinase panel screening; format: biochemical; conditions: 10 μM concentration; read-out: Inhibition Rate (Unit: %) c-Kit
Protocol: as §1

c-MET = c-MET (Homo sapiens, UniProt P08581); test: Kinase panel screening; format: biochemical; conditions: 10 μM concentration; read-out: Inhibition Rate (Unit: %) c-MET
Protocol: as §1

c-Src = c-Src (Homo sapiens, UniProt P12931); test: Kinase panel screening; format: biochemical; conditions: 10 μM concentration; read-out: Inhibition Rate (Unit: %) c-Src
Protocol: as §1

mTOR/FRAP1 = mTOR/FRAP1 (Homo sapiens, UniProt P42345); test: Kinase panel screening; format: biochemical; conditions: 10 μM concentration; read-out: Inhibition Rate (Unit: %) mTOR/FRAP1
Protocol: as §1

BRAF (V600E) [3] = molecular target: T1, BRAF (V600E); test: Enzymatic activity (IC50) to kinases; format: biochemical; conditions: read-out: IC50 (Unit: nM) BRAF (V600E)
cRAF1 = cRAF1 (Homo sapiens, UniProt P04049); test: Enzymatic activity (IC50) to kinases; format: biochemical; conditions: read-out: IC50 (Unit: nM) cRAF1

C[C@H](O)CNc1nccc(-n2ccnc2Cc2cccc(NC(=O)Nc3ccc(C(F)(F)F)c(Cl)c3)c2)n1 [Example 23, (S)-1-(3-chloro-4-(trifluoromethyl)phenyl)-3-(3-((1-(2-((2-hydroxypropyl)amino)pyrimidin-4-yl)-1H-imidazol-2-yl)methyl)phenyl)urea]
potency against A375P, in words ([1]; A375P cell line, comparison with Sorafenib): large potencies; also recorded: better potencies than Sorafenib | GI50 ([1]; A375P human melanoma cell line, read-out: A375P (GI50, Unit: μM)): 1.82 µM | inhibition at 10 µM (ABL1): 6.9% | inhibition at 10 µM (AKT1): 12.9% | inhibition at 10 µM (ALK): 4.9% | inhibition at 10 µM (Aurora A): 17.6% | Inhibition Rate (Unit: %) BRAF (BRAF; 10 µM): 99.9% | inhibition at 10 µM (BRAF; read-out: Inhibition Rate (Unit: %) BRAF): 99% | Inhibition Rate (Unit: %) BRAF (V600E) (BRAF (V600E) [2]; 10 µM): 96.1% | inhibition at 10 µM (BRAF (V600E) [2]; read-out: Inhibition Rate (Unit: %) BRAF (V600E)): 99% | inhibition at 10 µM (BTK): 0% | inhibition at 10 µM (EGFR): 0% | inhibition at 10 µM (FAK/PTK2): 1.2% | inhibition at 10 µM (FGFR3): 3.5% | inhibition at 10 µM (FLT3): 68.4% | inhibition at 10 µM (FMS): 33.6% | inhibition at 10 µM (GSK3b): 34.5% | inhibition at 10 µM (IGF1R): 0% | inhibition at 10 µM (JAK3): 0% | inhibition at 10 µM (JNK3): 0% | inhibition at 10 µM (MEK1): 0% | inhibition at 10 µM (P38a/MAPK14): 94.3% | inhibition at 10 µM (PLK1): 9.9% | Inhibition Rate (Unit: %) RAF1 (RAF1; 10 µM): 98.7% | inhibition at 10 µM (RAF1; read-out: Inhibition Rate (Unit: %) RAF1): 99% | inhibition at 10 µM (RON/MST1R): 0.42% | inhibition at 10 µM (ROS/ROS1): 0.73% | inhibition at 10 µM (SYK): 0% | inhibition at 10 µM (c-Kit): 63.8% | inhibition at 10 µM (c-MET): 17.6% | inhibition at 10 µM (c-Src): 2.1% | inhibition at 10 µM (mTOR/FRAP1): 0% | IC50 (BRAF (V600E) [3]): 38.3 nM | IC50 (cRAF1): 8.79 nM
